In patent US8076485B2, “Methylphenidate derivatives and uses of them” (priority 2005, dated 2011):

How the values were obtained:
[1] = test system: TCR-positive cells; experiment: Annexin staining of TCR-positive cells (flow cytometry, cell death); assay type: cell-based, human; settings: PHA 5 μg/ml plus 50 μg/ml; PHA alone 67%
Description: After this incubation, PHA was added to give a final concentration of 5 μg/ml, and the cells were incubated for an additional 72 hours at 37° C., 5% CO2. All cultures were performed in triplicate. Cells were then removed by centrifugation at 1000 rpm for 10 minutes.
The cells were further analyzed by flow cytometry Annexin was used to determine populations of dead or dying cells. Anti-CD69 antibody was used to establish the level of cellular activation. Antibody to T-cell receptor αβ (TCR) was also used. Recombinant Annexin 5 (PE and FITC conjugates) and the antibodies were all purchase from Caltag (Burlingham, Calif.) and used following the manufacturer's recommendations.

[2] = test system: IL-8; experiment: IL-8 release from LPS-stimulated THP-1 monocytes (ELISA); assay type: cell-based; settings: THP-1, LPS 200 ng/ml; Cpd II 15 μg/ml, Dex 10 μM
Description: THP-1 is a monocyte cell line obtained from American Type Culture Collection (ATCC) (catalog no. TIB-202). […] After 1 hour, lipopolysaccharide (LPS) (obtained from Sigma) was added to the cultures to give a final concentration of 200 ng/ml, and the cells were then incubated for an additional 4 hours or for an additional 24 hours. After the incubation, the cells were centrifuged, and the supernatants were collected. The concentrations of IL-8 and TNFα in the supernatants were determined by ELISA.
The concentrations of IL-8 in the supernatants were determined by ELISA performed as described in Example 4.

COC(=O)C(c1ccc(-c2ccccc2)cc1)C1CCCCN1 (centres unmarked) [Cpd II]
Annexin staining of TCR-positive cells (cell death) [1]: 87% | release of IL-8 from the LPS-stimulated monocytes [2]: significantly inhibited the release of IL-8
